Data on 47 compounds can be found in ChEMBL document CHEMBL1949653, “Novel heterocyclic DPP-4 inhibitors for the treatment of type 2 diabetes” (Bioorg Med Chem Lett, 2012).

One may read the pIC50 as the IC50 on a negative log10 scale, so that one unit is a factor of ten. The Papp A→B is how fast a substance crosses the layer from the apical side. For orientation: AUC means the area under the concentration-time curve, a measure of exposure. Read a high AUC as more exposure. As usually defined, the clearance is a measure of how efficiently the substance is removed, as volume per time. A low value points to inefficient removal. By Cmax is commonly meant the maximum level reached in the sampled fluid or tissue. What is called bioavailability is the share of a dose that reaches the circulation, judged against a reference dose that is usually intravenous. The low end stands for little systemic uptake, the high end for much systemic uptake.

The target in series [1] is T1, Muscarinic acetylcholine receptor M1 (Homo sapiens, UniProt P11229).
T1 sequence (P11229 whole entry): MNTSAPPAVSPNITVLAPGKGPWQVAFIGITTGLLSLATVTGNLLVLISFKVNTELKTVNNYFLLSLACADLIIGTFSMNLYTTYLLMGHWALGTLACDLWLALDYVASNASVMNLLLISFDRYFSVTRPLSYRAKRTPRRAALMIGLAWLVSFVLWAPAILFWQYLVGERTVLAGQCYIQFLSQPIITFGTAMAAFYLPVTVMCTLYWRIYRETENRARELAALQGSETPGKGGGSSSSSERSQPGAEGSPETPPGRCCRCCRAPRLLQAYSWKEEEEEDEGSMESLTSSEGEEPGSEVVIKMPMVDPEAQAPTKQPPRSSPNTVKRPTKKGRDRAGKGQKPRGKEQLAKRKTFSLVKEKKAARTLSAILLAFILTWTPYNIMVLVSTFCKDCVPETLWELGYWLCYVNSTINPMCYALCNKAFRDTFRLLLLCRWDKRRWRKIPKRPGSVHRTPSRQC
In words: Inhibition of M1 receptor.

The next series concerns the target Cytochrome P450 3A4 (Homo sapiens, UniProt P08684). In words: Inhibition of CYP3A4. The class given is ADME.
Series [2] has as its target Voltage-gated inwardly rectifying potassium channel KCNH2 (Homo sapiens, UniProt Q12809). In words: Inhibition of human ERG by dofetilide binding assay.
The species entered for series [3] is Rattus norvegicus. In words: animal or person. Conditions: po, 5 h, read-out: INH.
Series [4] is described as follows: Permeability from apical side to basal side of human Caco2 cells. Conditions: Caco-2.
Series [5] can be described thus: AUC in rat. Conditions: plasma. The class given is ADME, organism-based.
Series [6] is described as follows: Clearance in rat at 1 mg/kg, iv. The class given is ADME, organism-based. Also on record: dose 1 mg/kg, route intravenous. Conditions: in vivo.
Series [7] in a line: Cmax in rat. The series is classed as ADME, organism-based. Conditions: in vivo.
The nature of series [8]: Oral bioavailability in rat. The class given is ADME, organism-based. Particulars: in vivo.
Series [9] concerns Rattus norvegicus. In words: Ex-vivo inhibition of DPP4 in Wistar rat at 3 mg/kg, po up to 8 hrs post-administration. The series is classed as functional.
The nature of series [10]: Inhibition of Cytochrome P450. The series is classed as ADME.
Series [11] can be described thus: Intrinsic clearance in rat liver microsome. The class given is ADME. Conditions: liver microsomes, read-out: CLH. (In general: Liver microsomes are a subcellular fraction often used to study metabolism.)

pIC50: −log10 of the molar value. Bounds are passed on as bounds.

Sequence of Cytochrome P450 3A4 (P08684 whole entry): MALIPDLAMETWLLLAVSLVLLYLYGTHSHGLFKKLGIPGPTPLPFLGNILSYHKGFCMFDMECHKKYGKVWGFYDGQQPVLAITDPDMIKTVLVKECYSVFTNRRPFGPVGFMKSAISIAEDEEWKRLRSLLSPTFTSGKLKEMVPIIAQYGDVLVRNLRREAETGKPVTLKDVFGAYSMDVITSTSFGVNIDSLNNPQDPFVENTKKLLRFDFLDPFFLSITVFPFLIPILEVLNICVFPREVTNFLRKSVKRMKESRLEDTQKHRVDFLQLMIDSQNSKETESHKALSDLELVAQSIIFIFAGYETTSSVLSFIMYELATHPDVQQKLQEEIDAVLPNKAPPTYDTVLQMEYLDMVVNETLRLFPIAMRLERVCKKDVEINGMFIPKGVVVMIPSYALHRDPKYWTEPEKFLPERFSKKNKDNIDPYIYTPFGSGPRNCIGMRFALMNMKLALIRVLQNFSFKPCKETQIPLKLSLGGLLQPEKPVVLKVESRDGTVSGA
Sequence of Voltage-gated inwardly rectifying potassium channel KCNH2 (Q12809 whole entry): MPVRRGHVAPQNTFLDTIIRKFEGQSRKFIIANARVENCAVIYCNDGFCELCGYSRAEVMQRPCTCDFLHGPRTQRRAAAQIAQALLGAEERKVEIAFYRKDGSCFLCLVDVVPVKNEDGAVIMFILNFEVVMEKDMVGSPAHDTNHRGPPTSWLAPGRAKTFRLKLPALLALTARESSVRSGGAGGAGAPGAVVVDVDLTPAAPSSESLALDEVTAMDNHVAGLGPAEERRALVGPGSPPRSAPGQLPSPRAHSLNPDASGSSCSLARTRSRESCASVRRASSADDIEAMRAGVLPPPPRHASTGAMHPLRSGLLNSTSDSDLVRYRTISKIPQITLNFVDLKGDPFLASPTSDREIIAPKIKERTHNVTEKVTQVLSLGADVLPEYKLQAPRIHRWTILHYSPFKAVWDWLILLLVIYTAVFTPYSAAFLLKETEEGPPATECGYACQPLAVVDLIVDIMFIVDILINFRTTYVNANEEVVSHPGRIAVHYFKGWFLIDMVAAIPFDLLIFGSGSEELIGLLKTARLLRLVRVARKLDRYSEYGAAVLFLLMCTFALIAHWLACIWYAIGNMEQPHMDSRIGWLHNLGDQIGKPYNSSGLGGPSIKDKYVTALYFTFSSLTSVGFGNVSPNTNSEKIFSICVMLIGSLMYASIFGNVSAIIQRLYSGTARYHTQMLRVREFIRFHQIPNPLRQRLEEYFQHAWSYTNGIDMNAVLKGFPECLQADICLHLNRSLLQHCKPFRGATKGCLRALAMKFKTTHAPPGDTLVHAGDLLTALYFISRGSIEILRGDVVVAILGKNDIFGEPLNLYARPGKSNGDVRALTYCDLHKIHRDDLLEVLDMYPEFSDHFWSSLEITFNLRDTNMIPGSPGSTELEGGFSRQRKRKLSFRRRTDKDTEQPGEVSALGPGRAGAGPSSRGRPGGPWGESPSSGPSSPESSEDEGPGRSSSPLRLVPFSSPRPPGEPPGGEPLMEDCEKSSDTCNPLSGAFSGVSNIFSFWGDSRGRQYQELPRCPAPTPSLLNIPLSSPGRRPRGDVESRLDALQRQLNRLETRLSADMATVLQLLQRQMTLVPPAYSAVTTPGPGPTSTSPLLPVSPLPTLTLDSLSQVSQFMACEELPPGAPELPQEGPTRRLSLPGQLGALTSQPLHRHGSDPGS

Regarding `CC(C)=CCn1c(N2CCC[C@H](N)C2)c(C#N)c2c1c(=O)n(Cc1cnc3ccccc3n1)c(=O)n2C`, the figures for the pIC50 (in [1]; against Cytochrome P450 3A4) were below 5.00 and at least 5.52, respectively.

In the case of `Cn1cnc2c(C#N)c(N3CCC[C@H](N)C3)n(Cc3ccccc3)c2c1=O`, the pIC50 in [1] was below 5.00.

`COc1cccc(C(=O)Cn2c(=O)c3c(c(C#N)c(N4CCC[C@H](N)C4)n3CC=C(C)C)n(C)c2=O)c1`: the pIC50 in series [2] is 5.80; in series [1], below 5.00; against Cytochrome P450 3A4, at least 5.52.

In [1], `COc1cccc(C(=O)Cn2cnc3c(C#N)c(N4CCNCC4)n(CC=C(C)C)c3c2=O)c1` had a negative-log IC50 (pIC50) below 5.00.

Consider `CC#CCn1c(N2CCC[C@H](N)C2)c(C#N)c2c1c(=O)n(Cc1nccc3ccccc13)c(=O)n2C`, for which the pIC50 in series [2] is 4.55; in [1], below 5.00.

As for `CC(C)=CCn1c(N2CCC[C@H](N)C2)c(C#N)c2ncn(Cc3nccc4ccccc34)c(=O)c21`, in the series listed under Rattus norvegicus [3], the inhibition in vivo at 3 mg/kg amounted to 60%. This compound also gave a negative-log IC50 (pIC50) in [1] below 5.00.

On to `COc1cccc(C(=O)Cn2c(=O)c3c(c(C#N)c(N4CCCNCC4)n3CC=C(C)C)n(C)c2=O)c1`, for which the pIC50 is 5.96 in [2], below 5.00 in series [1] and at least 5.52 against Cytochrome P450 3A4.

`CC#CCn1c(N2CCC[C@H](N)C2)c(C#N)c2c1c(=O)n(CC(=O)c1cccc(OC)c1)c(=O)n2C` gave a negative-log IC50 (pIC50) in series [1] below 5.00.

`CC#CCn1c(N2CCC[C@H](N)C2)c(C#N)c2c1c(=O)n(Cc1nc(C)c3ccccc3n1)c(=O)n2C`: the pIC50 in series [2] was below 4.52; in series [1], below 5.00.

As for `CC#CCn1c(N2CCCNCC2)c(C#N)c2ncn(Cc3nccc4ccccc34)c(=O)c21`, in [1], the pIC50 is below 5.00.

Turning to `CC#CCn1c(N2CCCNCC2)c(C#N)c2c1c(=O)n(Cc1nc(C)c3ccccc3n1)c(=O)n2C`, the pIC50 in series [1] is below 5.00.

As for `CC(C)=CCn1c(N2CCC[C@H](N)C2)c(C#N)c2c1c(=O)n(Cc1nc(C)c3ccccc3n1)c(=O)n2C`, the negative-log IC50 (pIC50) in [2] is 5.17; in [1] it was below 5.00; on Cytochrome P450 3A4 it was at least 5.52.

`COc1cccc(C(=O)Cn2cnc3c(C#N)c(N4CCC[C@@H](N)C4)n(CC=C(C)C)c3c2=O)c1`: the pIC50 in series [1] was below 5.00.

In series [1], `CC#CCn1c(N2CCC[C@H](N)C2)c(C#N)c2ncn(Cc3ccnc4ccccc34)c(=O)c21` had a pIC50 below 5.00.

With `N#Cc1c(N2CCCNCC2)n(Cc2ccccc2)c2c(=O)n(Cc3nccc4ccccc34)cnc12`, in series [1], the negative-log IC50 (pIC50) was below 5.00.

With `COc1cccc(C(=O)Cn2cnc3c(C#N)c(N4CCC[C@H](N)C4)n(CC=C(C)C)c3c2=O)c1`, in [1], the pIC50 is below 5.00.

For `CC(C)=CCn1c(N2CCCNCC2)c(C#N)c2c1c(=O)n(Cc1c(C#N)cnc3ccccc13)c(=O)n2C`, the results for the pIC50 (in series [2]; in [1]; on Cytochrome P450 3A4) were 6.05, below 5.00 and at least 5.52, respectively.

`CC(C)=CCn1c(N2CCC[C@H](N)C2)c(C#N)c2ncn(Cc3ccnc4ccccc34)c(=O)c21` gave a pIC50 in [1] below 5.00.

On to `CC#CCn1c(N2CCC[C@@H](N)C2)c(C#N)c2c1c(=O)n(Cc1nc(C)c3ccccc3n1)c(=O)n2C`, for which the values for the pIC50 in [2] and in series [1] were 4.66 and below 5.00, respectively.

As to `CC(C)=CCn1c(N2CCC[C@H](N)C2)c(C#N)c2c1c(=O)n(Cc1ncccc1C#N)c(=O)n2C`, the pIC50 is 4.77 in series [2], below 5.00 in series [1] and at least 5.52 against Cytochrome P450 3A4.

As for `CC#CCn1c(N2CCCNCC2)c(C#N)c2c1c(=O)n(Cc1ncc3ccccc3c1C#N)c(=O)n2C`, the pIC50 in series [2] is 4.92; in [1], below 5.00.

In turn, `Cn1c(=O)c2c(c(C#N)c(N3CCC[C@H](N)C3)n2Cc2ccccc2)n(C)c1=O` gave a negative logarithm of the IC50 (pIC50) in [1] below 5.00.

On to `Cn1c(=O)n(Cc2nccc3ccccc23)c(=O)c2c1c(C#N)c(N1CCC[C@H](N)C1)n2Cc1ccccc1`, for which the pIC50 is 5.55 in series [2], below 5.00 in [1] and at least 5.52 against Cytochrome P450 3A4.

Consider `CC(C)=CCn1c(N2CCCNCC2)c(C#N)c2c1c(=O)n(Cc1ncc3ccccc3c1C#N)c(=O)n2C`, for which the pIC50 was 5.74 in series [2], below 5.00 in series [1] and at least 5.52 against Cytochrome P450 3A4.

In series [4], `CC#CCn1c(N2CCCNCC2)c(C#N)c2ncn(Cc3nc(C)c4ccccc4n3)c(=O)c21` showed a Papp A→B of 1.7 ×10⁻⁶ cm/s. The pIC50 in series [1] was below 5.00.

As to `CC#CCn1c(N2CCCNCC2)c(C#N)c2ncn(Cc3ncc4ccccc4n3)c(=O)c21`, in [4], the Papp A→B amounted to 0.6 ×10⁻⁶ cm/s. The same compound showed a pIC50 in series [1] below 5.00.

In series [1], `COc1cccc(C(=O)Cn2cnc3c(C#N)c(N4CCC[C@H](N)C4)n(Cc4ccccc4)c3c2=O)c1` gave a pIC50 below 5.00.

In series [1], `CC(C)=CCn1c(N2CCCNCC2)c(C#N)c2c1c(=O)n(Cc1nccc3ccccc13)c(=O)n2C` gave a pIC50 below 5.00.

On to `CC(C)=CCn1c(N2CCCNCC2)c(C#N)c2c1c(=O)n(Cc1cn3ccccc3n1)c(=O)n2C`, for which the pIC50 was below 5.00 in series [1] and at least 5.52 at Cytochrome P450 3A4.

Consider `CC#CCn1c(N2CCC[C@@H](N)C2)nc2c1c(=O)n(Cc1nc(C)c3ccccc3n1)c(=O)n2C` [LINAGLIPTIN], for which the exposure (AUC) in series [5] is 0.185 µM·h. The compound also returned a Papp A→B in series [4] of 0.8 ×10⁻⁶ cm/s. The clearance in series [6] stood at 34 mL/min/kg. For the same compound, in series [7], the concentration peaked (Cmax) at 21 nM. Also, in [8], the bioavailability came out at 9%.

The compound `CC#CCn1c(N2CCCNCC2)c(C#N)c2c1c(=O)n(Cc1nccc3ccccc13)c(=O)n2C` had an inhibition in vivo at 3 mg/kg with Rattus norvegicus [9] of at least 70%. The compound further showed a pIC50 in series [1] below 5.00.

In the case of `COc1cccc(C(=O)Cn2cnc3c(C#N)c(N4CCNCC4)n(Cc4ccccc4)c3c2=O)c1`, the pIC50 in [1] was below 5.00.

Consider `COc1cccc(C(=O)Cn2cnc3c(C#N)c(N4CCC[C@@H](N)C4)n(Cc4ccccc4)c3c2=O)c1`, for which the pIC50 in [1] is below 5.00.

On to `CC#CCn1c(N2CCCNCC2)c(C#N)c2c1c(=O)n(Cc1c(C#N)cnc3ccccc13)c(=O)n2C`, for which the pIC50 in series [10] is below 5.00; in series [1], below 5.00; against Cytochrome P450 3A4, at most 5.00.

Compound `Cn1cnc2c(C#N)c(N3CCNCC3)n(Cc3ccccc3)c2c1=O` showed a pIC50 in series [1] below 5.00.

In series [1], `CC(C)=CCn1c(N2CCC[C@H](N)C2)c(C#N)c2ncn(Cc3nc(C)c4ccccc4n3)c(=O)c21` had a pIC50 below 5.00.

Turning to `CC#CCn1c(N2CCC[C@@H](N)C2)c(C#N)c2ncn(CC(=O)c3cccc(OC)c3)c(=O)c21`, the pIC50 in [1] was below 5.00.

Turning to `CC(C)=CCn1c(N2CCC[C@H](N)C2)c(C#N)c2ncn(C)c(=O)c21`, the pIC50 in [1] is below 5.00.

As for `CC(C)=CCn1c(N2CCC[C@H](N)C2)c(C#N)c2c1c(=O)n(Cc1nccc3ccccc13)c(=O)n2C`, in [1], the pIC50 is below 5.00.

With `CC(C)=CCn1c(N2CCCNCC2)c(C#N)c2c1c(=O)n(Cc1nc(C)c3ccccc3n1)c(=O)n2C`, the pIC50 in series [1] was below 5.00; on Cytochrome P450 3A4, at least 5.52.

In turn, `COc1cccc(C(=O)Cn2c(=O)c3c(c(C#N)c(N4CCC[C@H](N)C4)n3Cc3ccccc3)n(C)c2=O)c1` had a pIC50 in series [1] below 5.00.

Consider `CC#CCn1c(N2CCNCC2)c(C#N)c2ncn(CC(=O)c3cccc(OC)c3)c(=O)c21`, for which the pIC50 in series [1] is below 5.00.

In the case of `N#Cc1c(N2CCC[C@H](N)C2)n(Cc2ccccc2)c2c(=O)n(Cc3ccnc4ccccc34)cnc12`, the pIC50 in series [1] was below 5.00.

As for `CC#CCn1c(N2CCC[C@H](N)C2)c(C#N)c2ncn(CC(=O)c3cccc(OC)c3)c(=O)c21`, the pIC50 in series [1] was below 5.00.

On to `CC(C)=CCn1c(N2CCCNCC2)c(C#N)c2ncn(Cc3nccc4ccccc34)c(=O)c21`, for which, in series [1], the pIC50 is below 5.00.

On to `CC(C)=CCn1c(N2CCC[C@H](N)C2)c(C#N)c2ncn(Cc3ncc4ccccc4n3)c(=O)c21`, for which the CLint scaled in series [11] is 67 mL/min/kg. Moreover, the pIC50 in series [1] is below 5.00.

In series [1], `CC#CCn1c(N2CCC[C@H](N)C2)c(C#N)c2ncn(Cc3nccc4ccccc34)c(=O)c21` showed a pIC50 below 5.00.
